Assay results from ChEMBL document CHEMBL1201862, “PubChem BioAssay data set” (2004).
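48-hour exposure; five concentrations; linearly interpolated endpoints. GI50 = concentration required for 50% inhibition of growth.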 Activity calls are given as the source filed them. Cut-off read from the data, not from the text of the source: active = GI50 up to about 1.1 µM and inactive = higher.

How the values were obtained:
Assay in all cases: NCI anticancer screen, dose series, 48 h
[1] = tested on: EKVX
[2] = tested on: UACC-257
[3] = tested on: IGROV-1
[4] = tested on: HCT-116
[5] = tested on: OVCAR-3
[6] = tested on: SK-MEL-28
[7] = tested on: HT-29
[8] = tested on: SK-OV-3
[9] = tested on: CAKI-1
[10] = tested on: SN12C
[11] = tested on: A498
[12] = tested on: OVCAR-5
[13] = tested on: NCI-H23
[14] = tested on: CCRF-CEM
[15] = tested on: BT-549
[16] = tested on: OVCAR-8
[17] = tested on: PC-3
[18] = tested on: U-251
[19] = tested on: MDA-MB-435
[20] = tested on: NCI-H460

SMILES	GI50 [1]	GI50 [2]	GI50 [3]	GI50 [4]	GI50 [5]	GI50 [6]	GI50 [7]	GI50 [8]	GI50 [9]	GI50 [10]	GI50 [11]	GI50 [12]	GI50 [13]	GI50 [14]	GI50 [15]	GI50 [16]	GI50 [17]	GI50 [18]	GI50 [19]	GI50 [20]
CCCCC/C=C1\CC(CO)(COC(=O)CC(C(C)C)C(C)C)OC1=O (stereo not given)	13.7 µM (inactive)	21.1 µM (inactive)	17.4 µM (inactive)	18.7 µM (inactive)	17.5 µM (inactive)	16.1 µM (inactive)	19.9 µM (inactive)	19.1 µM (inactive)	9.42 µM (inactive)	16.1 µM (inactive)	15.8 µM (inactive)	12.7 µM (inactive)	17.5 µM (inactive)	11.8 µM (inactive)	16.4 µM (inactive)	18.2 µM (inactive)	10.5 µM (inactive)	14.5 µM (inactive)	8.59 µM (inactive)	16.4 µM (inactive)
CN(CCNC(=O)c1cn(C)c2c1ccc1cc(Cl)ccc12)CCNC(=O)c1cn(C)c2c1ccc1cc(Cl)ccc12	1.94 µM (inactive)	6.38 µM (inactive)	3.57 µM (inactive)	1.71 µM (inactive)	2.4 µM (inactive)	5.85 µM (inactive)	1.93 µM (inactive)	1.56 µM (inactive)	1.6 µM (inactive)	1.78 µM (inactive)	3.71 µM (inactive)	1.97 µM (inactive)	2.01 µM (inactive)	5.74 µM (inactive)	3.43 µM (inactive)	6 µM (inactive)	5.5 µM (inactive)	7.59 µM (inactive)	1.44 µM (inactive)	3.24 µM (inactive)
COC(=O)c1c(CC(Cc2ccc3c(c2)CCCC3)C(=O)O)ccc2c1CCCC2 (stereo not given)	25.2 µM (inactive)	16 µM (inactive)	36.8 µM (inactive)	17.9 µM (inactive)	18.8 µM (inactive)	34.7 µM (inactive)	33 µM (inactive)	41 µM (inactive)	36 µM (inactive)	36.9 µM (inactive)	25 µM (inactive)	43.8 µM (inactive)	60.4 µM (inactive)	45.4 µM (inactive)	40.9 µM (inactive)	36.2 µM (inactive)	36.4 µM (inactive)	37.2 µM (inactive)	34.2 µM (inactive)	21.9 µM (inactive)
CCCCCCCCCCCCCCCCS(=O)(=O)c1ccc(NN)cc1	> 10 µM (inactive)	> 10 µM (inactive)	> 10 µM (inactive)	4.76 µM (inactive)	8.81 µM (inactive)	> 10 µM (inactive)	> 10 µM (inactive)	> 10 µM (inactive)	> 10 µM (inactive)	> 10 µM (inactive)	> 10 µM (inactive)	> 10 µM (inactive)	4.88 µM (inactive)	1.63 µM (inactive)	> 10 µM (inactive)	6.53 µM (inactive)	2.83 µM (inactive)	6.19 µM (inactive)	> 10 µM (inactive)	> 10 µM (inactive)
CCC(=O)Oc1c2ccsc2c(OC(=O)CC)c2ccsc12	0.871 µM (active)	0.171 µM (active)	1.95 µM (inactive)	0.332 µM (active)	0.351 µM (active)	0.178 µM (active)	2.41 µM (inactive)	6.62 µM (inactive)	2.42 µM (inactive)	0.353 µM (active)	3.1 µM (inactive)	1.88 µM (inactive)	0.182 µM (active)	0.478 µM (active)	0.174 µM (active)	0.366 µM (active)	0.339 µM (active)	0.389 µM (active)	0.0604 µM (active)	1.89 µM (inactive)
